# Source: publication PMC8309051, “Structure–Activity Relationship and Molecular Docking of a Kunitz-Like Trypsin Inhibitor, Kunitzin-AH, from the Skin Secretion of Amolops hainanensis” (Pharmaceutics, 2021)
# Where two headings read alike, the source gives them in different places. Where a SMILES comes first, the peptide text is derived from it. Bridges are numbered along the chain shown (N, C = ends).
# Legend:
# [1] = tested on: horse erythrocytes; experiment: Hemolytic activity assay; assay type: cell-based; details: for Hemolysis: 2% horse erythrocytes suspension, 37 °C, two hours
# Method: Hemolysis assay was conducted through the incubation of peptides and 2% horse erythrocytes suspension (T.C.S. Biosciences Ltd. Buckingham, UK) at 37 °C for two hours as detailed in the previous study. Afterwards, the positive control (considered as 100% hemolysis of cells) was conducted with 1% Triton X-100 (Sigma, Dorset, UK), while the negative control (0%) was treated with phosphate-buffered saline (PBS). The absorbance values were subsequently measured with a Synergy H.T. plate reader (BioTech, Minneapolis, MN, USA) and calculated by using Gen 5 software at a wavelength of 550 nm.
# [2] = molecular target: T1, bovine trypsin (Bos taurus, UniProt P00760); experiment: Trypsin inhibition assay (kinetic, substrate Phe-Pro-Arg-AMC); assay type: biochemical
# T1 sequence (P00760 24-246): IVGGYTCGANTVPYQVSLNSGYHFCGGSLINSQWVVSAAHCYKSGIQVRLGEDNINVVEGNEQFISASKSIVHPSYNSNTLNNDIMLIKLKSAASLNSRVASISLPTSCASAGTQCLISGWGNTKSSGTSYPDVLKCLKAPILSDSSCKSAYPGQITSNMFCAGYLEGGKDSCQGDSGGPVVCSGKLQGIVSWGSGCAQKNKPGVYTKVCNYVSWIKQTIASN
# Method: The kinetic enzyme assay was performed as described in the previous study. Substrate Phe-Pro-Arg-AMC was employed for investigating the hydrolysis of bovine trypsin. Trypsin working solution (10 µL trypsin stock solution (0.1 µM) + 9.99 mL HCl (1 mM)) and trypsin substrate working solution (50 µL substrate stock solution (Phe-Pro-Arg-AMC) (10 mM) + 9.95 mL PBS) were prepared prior to use. Trypsin inhibition assay contained three groups, namely positive control (20 µL PBS, 180 µL substrate working solution, 10 µL trypsin working solution), blank control (20 µL PBS + 10 µL HCl (1 mM) + 180 µL substrate working solution) and peptide group (20 µL peptide solution with the concentration ranging from 10 to 1000 µM, 180 µL substrate working solution, 10 µL trypsin working solution). The fluorescent strength released from hydrolysis of the substrate was monitored at 37 °C at the wavelength of 460 nm (excitation at 360 nm) in a POLARstar Omega Microplate Reader (B.M.G. Labtech, Offenburg, German). Each concentration of the sample was carried out in triplicate and repeated at least three times.
# Peptide concentration ( μM)
# Figure S3. The progress curve of inhibition rate in the presence of different concentrations of pep-tides (a) Kunitzin-AH; (b) AH-1363; (c) AH-unoxidized; (d) AH-1447; (e) AH-798; (f) AH-880-I; (g) […]
# The Y-axis represented the rate of the fluorescence decay, while the X-axis represented peptide concentrations in µM. The Ki values were calculated by Morrison formula in Prism 6, in […]
# Error bars represent standard error of mean
# (SEM) of three replicates. […]
# [3] = Morrison formula, three independent experiments, 37 °C, read-out: Ki Value
Structure (SMILES),Hemolysis [1] [µM],hemolytic activity (in words) ([1]; normal horse erythrocytes),Ki [2] [µM],"Ki [2, 3] [µM]"
"CC(C)[C@H](NC(=O)[C@H](C)N)C(=O)N[C@@H](CCCNC(=N)N)C(=O)N1CCC[C@H]1C(=O)N1CCC[C@H]1C(=O)N[C@@H](Cc1ccccc1)C(=O)N[C@@H](CCCNC(=N)N)C(=O)N[C@H]1CSSC[C@@H](C(=O)O)NC(=O)[C@H](Cc2ccccc2)NC(=O)[C@H](C)NC(=O)[C@H](C)NC(=O)[C@H](CCCCN)NC1=O [Kunitzin-AH, AVRPPFRCKAAFC] (H-AVRPPFRCKAAFC-OH; disulfide 8-13)",>512,without inducing damage to healthy horse erythrocytes,1.18 ± 0.08,
"CC(C)[C@H](NC(=O)[C@H](C)N)C(=O)N[C@@H](CCCNC(=N)N)C(=O)N1CCC[C@H]1C(=O)N1CCC[C@H]1C(=O)N[C@@H](Cc1ccccc1)C(=O)N[C@@H](CCCNC(=N)N)C(=O)N[C@@H](CS)C(=O)N[C@@H](CCCCN)C(=O)N[C@@H](C)C(=O)N[C@@H](C)C(=O)N[C@@H](Cc1ccccc1)C(=O)O [AH-1363, AVRPPFRCKAAF] (H-AVRPPFRCKAAF-OH; N-terminus and C-terminus assumed)",>512,,96.9 ± 1.2,
"CC(C)[C@H](NC(=O)[C@H](C)N)C(=O)N[C@@H](CCCNC(=N)N)C(=O)N1CCC[C@H]1C(=O)N1CCC[C@H]1C(=O)N[C@@H](Cc1ccccc1)C(=O)N[C@@H](CCCNC(=N)N)C(=O)N[C@H]1CSSC[C@@H](C(=O)O)NC(=O)[C@H](CCCCN)NC(=O)[C@H](C)NC(=O)[C@H](C)NC(=O)[C@H](CCCCN)NC1=O [AH-1447, AVRPPFRCKAAKC] (H-AVRPPFRCKAAKC-OH; disulfide 8-13)",>512,,349.2 ± 0.93,
"N=C(N)NCCC[C@H](N)C(=O)N[C@H]1CSSC[C@@H](C(=O)O)NC(=O)[C@H](Cc2ccccc2)NC(=O)[C@H](CC(N)=O)NC(=O)[C@H](CC(N)=O)NC(=O)[C@H](CCCCN)NC1=O [AH-884, RCKNNFC] (H-RCKNNFC-OH; disulfide 2-7)",>512,,,133 ± 4.1
"CC[C@H](C)[C@@H]1NC(=O)[C@H](CCCCN)NC(=O)[C@@H](NC(=O)[C@@H](N)CCCNC(=N)N)CSSC[C@@H](C(=O)O)NC(=O)[C@H](Cc2ccccc2)NC(=O)[C@H]([C@@H](C)CC)NC1=O [AH-880-I, RCKIIFC] (H-RCKIIFC-OH; disulfide 2-7)",>512,,,16.1 ± 1.2
"CC(C)[C@H](NC(=O)[C@H](C)N)C(=O)N[C@@H](CCCNC(=N)N)C(=O)N1CCC[C@H]1C(=O)N1CCC[C@H]1C(=O)N[C@@H](Cc1ccccc1)C(=O)N[C@@H](CCCNC(=N)N)C(=O)N[C@@H](CS)C(=O)N[C@@H](CCCCN)C(=O)N[C@@H](C)C(=O)N[C@@H](C)C(=O)N[C@@H](Cc1ccccc1)C(=O)N[C@@H](CS)C(=O)O [AH-unoxidized, AVRPPFRCKAAFC] (H-AVRPPFRCKAAFC-OH)",>512,,59.9 ± 2.82,
"C[C@@H]1NC(=O)[C@H](C)NC(=O)[C@H](CCCCN)NC(=O)[C@@H](NC(=O)[C@@H](N)CCCNC(=N)N)CSSC[C@@H](C(=O)O)NC(=O)[C@H](Cc2ccccc2)NC1=O [AH-798, RCKAAFC] (H-RCKAAFC-OH; disulfide 2-7)",>512,,,1.76 ± 0.13
